Data: patent publication US4520112A, “Assay method for organic calcium antagonist drugs and a kit for such an assay” (The Johns Hopkins University, priority 1983, dated 1985)

Key:
[1] = test system: calcium channel receptor (bovine cerebral cortex membranes); assay: 3H-nitrendipine binding to cerebral cortex membranes (calcium channel receptor); settings: drug added to human plasma
[2] = test system: calcium antagonist receptors; settings: literature reports; cited from earlier work

Compound | effect on 3H-nitrendipine binding [1] | effect on 3H-nitrendipine binding [2]
COc1ccc(CCN(C)CCCC2(c3ccc(OC)c(OC)c3)S(=O)(=O)CCCS2(=O)=O)cc1OC [tiapamil] | reduction | 
COCCOC(=O)C1=C(C)NC(C)=C(C(=O)OC(C)C)C1c1cccc([N+](=O)[O-])c1 (stereo not shown) [Nimodipine, nimodipine] | inhibition | 
COC(=O)C1=C(C)NC(C)=C(C(=O)OC)C1c1ccccc1[N+](=O)[O-] [nifedipine] |  | compete directly
COc1ccc([C@@H]2Sc3ccccc3N(CCN(C)C)C(=O)[C@@H]2OC(C)=O)cc1 [diltiazem] | reversal of tiapamil induced reduction | interact allosterically with the same receptor site and also reduce ^3 H-nitrendipine binding
CC(Cc1ccccc1)NCCC(c1ccccc1)c1ccccc1 (stereo not shown) [prenylamine] | inhibition | 
COc1ccc(CCN(C)CCCC(C#N)(c2ccc(OC)c(OC)c2)C(C)C)cc1OC (stereo not shown) [verapamil] |  | interact allosterically with the same receptor site and also reduce ^3 H-nitrendipine binding
